# Assays:
# [1] = Example 9: body weight of A549 tumor-bearing nude mice; type: in vivo
# Procedure: On D1 of the assay, the A549 cells in the logarithmic growth phase were collected, counted and resuspended in PBS, and the cell concentration was adjusted to 8×10^7 cells/mL. The cells were pipetted with a pipette to disperse them evenly, and the cells were put into a 50-mL centrifuge tube, which was placed in an ice box. A 1-mL syringe was used to draw the cell suspension, which was injected subcutaneously into the axilla of the front right limb of a nude mouse. Each animal was inoculated with 100 μL (8×10^6 cells/mouse) to establish an A549 transplanted tumor model in nude mice. After the inoculation, the animal status and tumor growth were regularly observed. On D18, the tumor diameter was measured using an electronic vernier caliper. The data were input into an Excel spreadsheet to calculate the tumor volume. Tumor-bearing mice in good health and with similar tumor volumes (101 to 156 mm^3) were selected and divided into groups using randomized block method. After the start of the assay, the tumor diameter was measured regularly, the tumor volume was calculated, and the animal body weight was also weighed and recorded. [table]
# [2] = test system: A549 cells; assay: Cell EDU proliferation assay, A549; type: cell-based, human; settings: 150 μM
# Procedure: The compound of formula (I) at a concentration of 150 μM was co-cultured with the cells for 42 h, and then the FBS concentration in the FBS stimulation well was increased to 20%. The cells were cultured for another 6 h, and then detected using a Cell-Light EDUApollo567 kit.
# (1) Cells in the logarithmic growth phase were taken, and inoculated into a 24-well culture plate at 1×10^4 cells per well. The culture plate was cultured in a 37° C. incubator under the condition of 5% CO2, and drug was added according to the assay design when the cells adhered to the wall.
# (2) After the drug treatment, the Cell-Light EDU Apollo567 kit was taken out. The reagent A in the kit was diluted with 1640 complete culture medium at a ratio of 1000:1 to prepare a 50 μM EDU culture medium, 300 μl of which was configured to each well of the 24-well plate. The 24-well plate was taken out from the incubator, and the original culture medium was aspirated with a vacuum aspirator. […]
# (12) 150 μl of PBS was added to each well to wash once, and the PBS was discarded. Then, 200 μl of PBS was added, and the plate was placed on an inverted fluorescence microscope to take pictures. 6 fields of view were taken for each well under a 200× field of view, and the proportion of EDU-positive cells among 100 cells was calculated. […]
# [3] = test system: NCI-H460 cells; assay: Colony formation assay, NCI-H460; type: cell-based, human; settings: 50 μM and 150 μM vs 0 μM, about 2 weeks
# Procedure: (1) The cell status was observed under a microscope. Cells in the logarithmic growth phase were selected and digested to make a cell suspension. 20 μl of the cell suspension was taken with a pipette and added to the CountStar disposable cell counting plate for cell counting, and the counting results were recorded.
# (2) A 6-well culture plate was used for colony formation assay. Approximately 1,000 cells were inoculated into each well, and the complete culture medium was added to make up the volume to 2.5 ml per well. The cells were shaked in a figure-8 pattern to disperse the cells evenly. The next day, the compound of formula (I) at different concentrations (0 μM, 50 μM, and 150 μM) were added to the corresponding wells according to the assay plan, and incubated in an incubator at 37° C. with 5% CO2 for about 2 weeks. The culture was terminated when visible colonies appeared.
# (3) The culture plate was taken out, and the old culture medium was discarded. The cells were gently washed twice with PBS.
# (4) 500 μl of 4% paraformaldehyde fixative was added to each well to fix the cells at room temperature for 15 minutes, and then the fixative was discarded.
# (5) 500 μl of 0.1% crystal violet solution was added to each well, and cells were stained at room temperature for at least 15 minutes. The crystal violet was discarded, and the staining solution was slowly washed away with running water. […]
# [4] = D21, DDP 5/7/7/7 mg/kg i.p. QW×4
# [5] = D25, DDP 5/7/7/7 mg/kg i.p. QW×4
# [6] = D28, DDP 5/7/7/7 mg/kg i.p. QW×4
# [7] = D32, DDP 5/7/7/7 mg/kg i.p. QW×4
# [8] = D35, DDP 5/7/7/7 mg/kg i.p. QW×4
# [9] = D39, DDP 5/7/7/7 mg/kg i.p. QW×4
# [10] = D42, DDP 5/7/7/7 mg/kg i.p. QW×4
# [11] = D46, DDP 5/7/7/7 mg/kg i.p. QW×4
structure (smiles),measurement,setting,value
"N.N.[Cl][Pt][Cl] [DDP, cisplatin]",Mean animal body weight,"[1]; D18, DDP 4 mg/kg i.p. QW×4",18.4 ± 0.4 g
same,Mean animal body weight,"[1]; D18, DDP 5/7/7/7 mg/kg i.p. QW×4",18.5 ± 0.3 g
same,Mean animal body weight,"[1]; D21, DDP 4 mg/kg i.p. QW×4",18.3 ± 0.5 g
same,body weight loss rate,"[1]; D21, DDP 4 mg/kg i.p. QW×4",(0.81%)
same,Mean animal body weight,[1]; [4],18.4 ± 0.3 g
same,body weight loss rate,[1]; [4],(0.61%)
same,Mean animal body weight,"[1]; D25, DDP 4 mg/kg i.p. QW×4",18.1 ± 0.3 g
same,body weight loss rate,"[1]; D25, DDP 4 mg/kg i.p. QW×4",(1.7%)
same,Mean animal body weight,[1]; [5],18.5 ± 0.3 g
same,body weight loss rate,[1]; [5],(0.00%)
same,Mean animal body weight,"[1]; D28, DDP 4 mg/kg i.p. QW×4",18.5 ± 0.3 g
same,body weight loss rate,"[1]; D28, DDP 4 mg/kg i.p. QW×4",(−0.14%)
same,Mean animal body weight,[1]; [6],18.9 ± 0.3 g
same,body weight loss rate,[1]; [6],(−2.4%)
same,Mean animal body weight,"[1]; D32, DDP 4 mg/kg i.p. QW×4",18.7 ± 0.3 g
same,body weight loss rate,"[1]; D32, DDP 4 mg/kg i.p. QW×4",(−1.4%)
same,Mean animal body weight,[1]; [7],18.3 ± 0.4 g
same,body weight loss rate,[1]; [7],(1.3%)
same,Mean animal body weight,"[1]; D35, DDP 4 mg/kg i.p. QW×4",19.3 ± 0.3 g
same,body weight loss rate,"[1]; D35, DDP 4 mg/kg i.p. QW×4",(−4.9%)
same,Mean animal body weight,[1]; [8],19.2 ± 0.4 g
same,body weight loss rate,[1]; [8],(−4.0%)
same,Mean animal body weight,"[1]; D39, DDP 4 mg/kg i.p. QW×4",19.3 ± 0.3 g
same,body weight loss rate,"[1]; D39, DDP 4 mg/kg i.p. QW×4",(−4.6%)
same,Mean animal body weight,[1]; [9],18.0 ± 0.3 g
same,body weight loss rate,[1]; [9],(2.5%)
same,Mean animal body weight,"[1]; D42, DDP 4 mg/kg i.p. QW×4",19.8 ± 0.5 g
same,body weight loss rate,"[1]; D42, DDP 4 mg/kg i.p. QW×4",(−7.7%)
same,Mean animal body weight,[1]; [10],18.8 ± 0.4 g
same,body weight loss rate,[1]; [10],(−1.5%)
same,Mean animal body weight,"[1]; D46, DDP 4 mg/kg i.p. QW×4",19.5 ± 0.5 g
same,body weight loss rate,"[1]; D46, DDP 4 mg/kg i.p. QW×4",(−5.6%)
same,Mean animal body weight,[1]; [11],17.1 ± 0.5 g
same,body weight loss rate,[1]; [11],(7.4%)
COC1=C(OC)C(=O)C(CCCCCCCCCCOC(=O)Cc2c(C)n(C(=O)c3ccc(Cl)cc3)c3ccc(OC)cc23)=C(C)C1=O [compound of formula (I)],proportion of proliferating cells (EDU),"[2]; 48 hours, vs CTL (0 μM)",significantly reduced
same,cell proliferation under FBS stimulation (EDU),[2]; FBS increased to 20% for last 6 h,can inhibit the cell proliferation effect
same,colony-forming ability,[3],decreased significantly
